Experimental data: patent publication US20020026053A1, “Novel 3-(substituted) -2- indolinones compounds and use thereof as inhibitors of protein kinase activity” (priority 1997, published 2002)

biological target: T1, EGFR (Homo sapiens, UniProt P00533); experiment: Biochemical EGFR Assay; design: concentration or dose not given beside the values
T1 construct: endogenous in cells; host or cells: A431 cells (lysate, captured with SUMO1 anti-EGFR antibody)
How it was run: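 EGFR from A431 lysate was captured on anti-EGFR-coated wells and preincubated 30 min with compound (diluted 1:10 in TBS) at room temperature. After ATP/MnCl2 phosphorylation for 5 min, the reaction was stopped with EDTA. Phosphotyrosine was detected by ELISA (anti-phosphotyrosine, peroxidase conjugate, ABTS) at 410 nm.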

T1 sequence (P00533 25-1210): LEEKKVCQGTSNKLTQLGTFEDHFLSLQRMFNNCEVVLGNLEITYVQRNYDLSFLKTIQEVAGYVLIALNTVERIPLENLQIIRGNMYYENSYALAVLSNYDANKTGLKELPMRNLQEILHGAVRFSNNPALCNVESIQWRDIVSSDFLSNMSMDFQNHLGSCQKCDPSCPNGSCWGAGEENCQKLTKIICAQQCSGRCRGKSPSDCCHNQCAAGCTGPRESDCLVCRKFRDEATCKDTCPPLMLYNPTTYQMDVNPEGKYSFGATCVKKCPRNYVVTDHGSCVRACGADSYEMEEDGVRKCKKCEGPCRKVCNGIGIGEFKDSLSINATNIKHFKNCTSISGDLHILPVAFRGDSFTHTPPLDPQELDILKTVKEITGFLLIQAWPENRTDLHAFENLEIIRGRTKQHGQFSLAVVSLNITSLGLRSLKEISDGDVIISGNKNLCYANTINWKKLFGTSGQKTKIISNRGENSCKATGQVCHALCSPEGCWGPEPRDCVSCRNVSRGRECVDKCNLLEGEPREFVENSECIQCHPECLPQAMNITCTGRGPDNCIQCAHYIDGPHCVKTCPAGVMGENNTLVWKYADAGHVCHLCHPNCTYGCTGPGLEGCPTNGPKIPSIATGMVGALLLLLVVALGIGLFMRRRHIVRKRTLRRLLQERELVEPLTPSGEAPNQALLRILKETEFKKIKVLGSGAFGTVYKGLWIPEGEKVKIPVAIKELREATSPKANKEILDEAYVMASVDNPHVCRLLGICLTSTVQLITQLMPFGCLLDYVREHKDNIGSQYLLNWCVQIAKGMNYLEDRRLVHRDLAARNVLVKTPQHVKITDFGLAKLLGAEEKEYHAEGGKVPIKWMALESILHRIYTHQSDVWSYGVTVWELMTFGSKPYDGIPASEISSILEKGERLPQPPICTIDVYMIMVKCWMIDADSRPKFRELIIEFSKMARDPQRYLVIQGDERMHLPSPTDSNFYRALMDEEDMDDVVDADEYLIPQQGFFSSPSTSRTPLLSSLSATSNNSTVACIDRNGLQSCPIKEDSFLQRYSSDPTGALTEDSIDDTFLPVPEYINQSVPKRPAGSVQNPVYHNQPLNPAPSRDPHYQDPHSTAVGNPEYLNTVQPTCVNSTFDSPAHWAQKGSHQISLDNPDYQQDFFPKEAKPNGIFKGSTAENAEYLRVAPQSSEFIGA

SMILES	Biochem EGFR % Inhibition (P.167) [%]
CCOC(=O)c1c(C)[nH]c(C=C2C(=O)Nc3c(Br)cc(Br)c(C)c32)c1C [10718/H02]	−22.5
COc1cc(Br)c(O)c(C=C2C(=O)Nc3c(Br)cc(Br)c(C)c32)c1 [10718/H03]	33.2
Cc1c(Br)cc(Br)c2c1C(=Cc1ccc3ccccc3c1O)C(=O)N2 [10718/H04]	13.7
CCOC(=O)CCc1c(C(=O)OCC)[nH]c(C=C2C(=O)Nc3c(Br)cc(Br)c(C)c32)c1CC(=O)OCC [10718/H05]	0.2
CCOC(=O)c1cc(C=C2C(=O)Nc3c(Br)cc(Br)c(C)c32)oc1C [10718/H06]	−5.1
COC(=O)c1[nH]c(C)c(C=C2C(=O)Nc3c(Br)cc(Br)c(C)c32)c1C(=O)OC [10718/H07]	−12.0
Cc1c(Br)cc(Br)c2c1C(=Cc1ccc(Cl)c([N+](=O)[O-])c1)C(=O)N2 [10718/H08]	−2.5
CCOc1cccc(C=C2C(=O)Nc3c(Br)cc(Br)cc32)c1O [10734/A02]	0.0
O=C1Nc2c(Br)cc(Br)cc2C1=Cc1cc(Cl)cc(Cl)c1O [10734/A03]	18.5
O=C1Nc2c(Br)cc(Br)cc2C1=Cc1cc(Cl)ccc1O [10734/A04]	11.4
CCN(CC)c1ccc(C=C2C(=O)Nc3c(Br)cc(Br)cc32)c(O)c1 [10734/A05]	22.6
O=C1Nc2c(Br)cc(Br)cc2C1=Cc1ccc([N+](=O)[O-])cc1 [10734/A06]	−6.4
O=C1Nc2c(Br)cc(Br)cc2C1=Cc1cc(Br)cc(Br)c1O [10734/A07]	15.2
O=C1Nc2c(Br)cc(Br)cc2C1=Cc1cccc(F)c1O [10734/A08]	6.8
O=C1Nc2c(Br)cc(Br)cc2C1=Cc1ccc(O)c(Br)c1 [10734/A09]	27.3
CC(C)(C)c1ccc(C=C2C(=O)Nc3c(Br)cc(Br)cc32)cc1 [10734/A10]	27.8
O=C1Nc2c(Br)cc(Br)cc2C1=Cc1ccc(Br)s1 [10734/A11]	12.5
CCOc1cccc(C=C2C(=O)Nc3ccc(I)cc32)c1O [10734/B02]	−8.9
O=C1Nc2ccc(I)cc2C1=Cc1cc(Cl)cc(Cl)c1O [10734/B03]	45.1
O=C1Nc2ccc(I)cc2C1=Cc1cc(Cl)ccc1O [10734/B04]	38.7
CCN(CC)c1ccc(C=C2C(=O)Nc3ccc(I)cc32)c(O)c1 [10734/B05]	17.8
O=C1Nc2ccc(I)cc2C1=Cc1ccc([N+](=O)[O-])cc1 [10734/B06]	54.0
O=C1Nc2ccc(I)cc2C1=Cc1cc(Br)cc(Br)c1O [10734/B07]	65.5
O=C1Nc2ccc(I)cc2C1=Cc1cccc(F)c1O [10734/B08]	19.3
O=C1Nc2ccc(I)cc2C1=Cc1ccc(O)c(Br)c1 [10734/B09]	34.9
CC(C)(C)c1ccc(C=C2C(=O)Nc3ccc(I)cc32)cc1 [10734/B10]	60.7

SMILES	Biochem EGFR % Inhibition (P.167) [%]
O=C1Nc2ccc(I)cc2C1=Cc1ccc(Br)s1 [10734/B11]	50.9
CCOc1cccc(C=C2C(=O)Nc3ccc(Br)c(C)c32)c1O [10734/C02]	−6.7
Cc1c(Br)ccc2c1C(=Cc1cc(Cl)cc(Cl)c1O)C(=O)N2 [10734/C03]	48.6
Cc1c(Br)ccc2c1C(=Cc1cc(Cl)ccc1O)C(=O)N2 [10734/C04]	38.1
CCN(CC)c1ccc(C=C2C(=O)Nc3ccc(Br)c(C)c32)c(O)c1 [10734/C05]	9.3
Cc1c(Br)ccc2c1C(=Cc1ccc([N+](=O)[O-])cc1)C(=O)N2 [10734/C06]	18.4
Cc1c(Br)ccc2c1C(=Cc1cc(Br)cc(Br)c1O)C(=O)N2 [10734/C07]	41.0
Cc1c(Br)ccc2c1C(=Cc1cccc(F)c1O)C(=O)N2 [10734/C08]	35.1
Cc1c(Br)ccc2c1C(=Cc1ccc(O)c(Br)c1)C(=O)N2 [10734/C09]	36.2
Cc1c(Br)ccc2c1C(=Cc1ccc(C(C)(C)C)cc1)C(=O)N2 [10734/C10]	24.4
Cc1c(Br)ccc2c1C(=Cc1ccc(Br)s1)C(=O)N2 [10734/C11]	18.0
CCOc1cccc(C=C2C(=O)Nc3ccc(S(=O)(=O)NC)cc32)c1O [10734/D02]	5.2
CNS(=O)(=O)c1ccc2c(c1)C(=Cc1cc(Cl)cc(Cl)c1O)C(=O)N2 [10734/D03]	19.6
CNS(=O)(=O)c1ccc2c(c1)C(=Cc1cc(Cl)ccc1O)C(=O)N2 [10734/D04]	−10.7
CCN(CC)c1ccc(C=C2C(=O)Nc3ccc(S(=O)(=O)NC)cc32)c(O)c1 [10734/D05]	−9.6
CNS(=O)(=O)c1ccc2c(c1)C(=Cc1ccc([N+](=O)[O-])cc1)C(=O)N2 [10734/D06]	1.3
CNS(=O)(=O)c1ccc2c(c1)C(=Cc1cc(Br)cc(Br)c1O)C(=O)N2 [10734/D07]	51.1
CNS(=O)(=O)c1ccc2c(c1)C(=Cc1cccc(F)c1O)C(=O)N2 [10734/D08]	−13.7
CNS(=O)(=O)c1ccc2c(c1)C(=Cc1ccc(O)c(Br)c1)C(=O)N2 [10734/D09]	21.0
CNS(=O)(=O)c1ccc2c(c1)C(=Cc1ccc(C(C)(C)C)cc1)C(=O)N2 [10734/D10]	−4.4
CNS(=O)(=O)c1ccc2c(c1)C(=Cc1ccc(Br)s1)C(=O)N2 [10734/D11]	14.6
CCOc1cccc(C=C2C(=O)Nc3ccc(S(=O)(=O)Nc4ccc(C(F)(F)F)cc4)cc32)c1O [10734/E02]	−10.8
O=C1Nc2ccc(S(=O)(=O)Nc3ccc(C(F)(F)F)cc3)cc2C1=Cc1cc(Cl)cc(Cl)c1O [10734/E03]	55.0
O=C1Nc2ccc(S(=O)(=O)Nc3ccc(C(F)(F)F)cc3)cc2C1=Cc1cc(Cl)ccc1O [10734/E04]	−7.8
CCN(CC)c1ccc(C=C2C(=O)Nc3ccc(S(=O)(=O)Nc4ccc(C(F)(F)F)cc4)cc32)c(O)c1 [10734/E05]	7.9
O=C1Nc2ccc(S(=O)(=O)Nc3ccc(C(F)(F)F)cc3)cc2C1=Cc1ccc([N+](=O)[O-])cc1 [10734/E06]	6.3

SMILES	Biochem EGFR % Inhibition (P.167) [%]
O=C1Nc2ccc(S(=O)(=O)Nc3ccc(C(F)(F)F)cc3)cc2C1=Cc1cc(Br)cc(Br)c1O [10734/E07]	82.4
O=C1Nc2ccc(S(=O)(=O)Nc3ccc(C(F)(F)F)cc3)cc2C1=Cc1cccc(F)c1O [10734/E08]	24.2
O=C1Nc2ccc(S(=O)(=O)Nc3ccc(C(F)(F)F)cc3)cc2C1=Cc1ccc(O)c(Br)c1 [10734/E09]	73.0
CC(C)(C)c1ccc(C=C2C(=O)Nc3ccc(S(=O)(=O)Nc4ccc(C(F)(F)F)cc4)cc32)cc1 [10734/E10]	−5.0
O=C1Nc2ccc(S(=O)(=O)Nc3ccc(C(F)(F)F)cc3)cc2C1=Cc1ccc(Br)s1 [10734/E11]	−8.0
CCOc1cccc(C=C2C(=O)Nc3ccc(S(=O)(=O)N4CCOCC4)cc32)c1O [10734/F02]	0.7
O=C1Nc2ccc(S(=O)(=O)N3CCOCC3)cc2C1=Cc1cc(Cl)cc(Cl)c1O [10734/F03]	24.8
O=C1Nc2ccc(S(=O)(=O)N3CCOCC3)cc2C1=Cc1cc(Cl)ccc1O [10734/F04]	3.9
CCN(CC)c1ccc(C=C2C(=O)Nc3ccc(S(=O)(=O)N4CCOCC4)cc32)c(O)c1 [10734/F05]	−15.6
O=C1Nc2ccc(S(=O)(=O)N3CCOCC3)cc2C1=Cc1ccc([N+](=O)[O-])cc1 [10734/F06]	−17.1
O=C1Nc2ccc(S(=O)(=O)N3CCOCC3)cc2C1=Cc1cc(Br)cc(Br)c1O [10734/F07]	33.7
O=C1Nc2ccc(S(=O)(=O)N3CCOCC3)cc2C1=Cc1cccc(F)c1O [10734/F08]	−23.6
O=C1Nc2ccc(S(=O)(=O)N3CCOCC3)cc2C1=Cc1ccc(O)c(Br)c1 [10734/F09]	3.1
CC(C)(C)c1ccc(C=C2C(=O)Nc3ccc(S(=O)(=O)N4CCOCC4)cc32)cc1 [10734/F10]	−8.3
O=C1Nc2ccc(S(=O)(=O)N3CCOCC3)cc2C1=Cc1ccc(Br)s1 [10734/F11]	−15.6
CCOc1cccc(C=C2C(=O)Nc3ccc(CCCl)cc32)c1O [10734/G02]	3.4
O=C1Nc2ccc(CCCl)cc2C1=Cc1cc(Cl)cc(Cl)c1O [10734/G03]	82.8
O=C1Nc2ccc(CCCl)cc2C1=Cc1cc(Cl)ccc1O [10734/G04]	62.9
CCN(CC)c1ccc(C=C2C(=O)Nc3ccc(CCCl)cc32)c(O)c1 [10734/G05]	−0.3
O=C1Nc2ccc(CCCl)cc2C1=Cc1ccc([N+](=O)[O-])cc1 [10734/G06]	12.5
O=C1Nc2ccc(CCCl)cc2C1=Cc1cc(Br)cc(Br)c1O [10734/G07]	51.1
O=C1Nc2ccc(CCCl)cc2C1=Cc1cccc(F)c1O [10734/G08]	33.7
O=C1Nc2ccc(CCCl)cc2C1=Cc1ccc(O)c(Br)c1 [10734/G09]	21.4
CC(C)(C)c1ccc(C=C2C(=O)Nc3ccc(CCCl)cc32)cc1 [10734/G10]	3.8
O=C1Nc2ccc(CCCl)cc2C1=Cc1ccc(Br)s1 [10734/G11]	4.1
